From BindingDB's records for patent US11834430 (Agency For Science, Technology and Research, 2023)
pIC50: −log10 of the molar value.

Biological target: Protein-S-isoprenylcysteine O-methyltransferase (Homo sapiens, UniProt O60725)
Experiment: ICMT Biochemical Assay
Procedure: An ICMT enzymatic assay was developed using Promega's Methyltransferase-GloTMreagents. In the assay, ICMT catalyzes the methylation of the N-Acetyl-S-farnesyl-L-cysteine by transferring a methyl group from SAM to the farnesylated cysteine and further converts the SAM to SAH. The methyltransferase activity is measured based on the amount of SAH produced from the reaction through the use of coupling enzymes that convert the SAH to ATP. […] A final concentration of 2.0 μM and 20 μM of SAM and peptide were added and further incubated for 90 minutes at room temperature before adding the MTase Glo and detection reagent. Reaction signals were detected using microplate readers on luminescent mode (Satire Tecan).

Sequence of Protein-S-isoprenylcysteine O-methyltransferase (O60725 whole entry): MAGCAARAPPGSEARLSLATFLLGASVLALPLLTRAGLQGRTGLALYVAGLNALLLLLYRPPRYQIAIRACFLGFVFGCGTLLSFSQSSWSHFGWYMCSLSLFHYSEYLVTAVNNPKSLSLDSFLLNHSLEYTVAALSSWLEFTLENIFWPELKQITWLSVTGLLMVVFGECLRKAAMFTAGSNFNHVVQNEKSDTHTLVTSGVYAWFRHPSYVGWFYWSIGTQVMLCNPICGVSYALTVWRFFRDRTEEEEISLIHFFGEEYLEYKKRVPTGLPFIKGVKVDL

| pIC50 | Compound |
| --- | --- |
| 7.74 | N#Cc1ccc(OCCOc2ccc(F)c(-c3ccnn3C3CC3)c2)c(F)c1 [US11834430, Compound 88] |
| 7.12 | COc1cc(Cl)ccc1OCCOc1cccc(-n2ccnc2C)c1 [US11834430, Compound 45] |
